Assay: Reconstitution of Orbactiv 400 mg vial with aqueous HPCD: time to dissolve, pH and visual observation on storage
Type: physicochemical
Settings: for visible precipitation: over 24 hours; for time to go into solution (clear, colorless solution): 57.14 mg/mL; for pH: oritavancin 50 mg/mL
Procedure: Reconstituting Orbactiv 400 mg (Oritavancin) with 50% HPCD. 5.915 g of HPCD was dissolved in 11.83 mL of water to make a 50 wt % aqueous solution. 8 mL of the 50% HPCD solution was added to a 400 mg vial of Orbactiv for a target oritavancin concentration of 50 mg/mL. […] The pH was measured and the solution was stored at room temperature, protected from light, and observed over 24 hours for signs of precipitation (Table 1).
Reconstituting Orbactiv 400 mg (Oritavancin) in 20% w/v HPCD aqueous solution. 3.095 g HPCD was dissolved in 15.474 mL water to make a 20% w/v solution (pH=6.05). 8 mL of the 20% w/v HPCD solution was added to a 400 mg vial of Orbactiv for a target oritavancin concentration of 50 mg/mL. […] The pH was measured and the solution was stored at room temperature, protected from light, and observed over 24 hours for signs of precipitation (Table 3).
Reconstituting Orbactiv 400 mg (Oritavancin) in 50% w/v HPCD aqueous solution, adjusting pH then diluting in saline. 6.269 g of HPCD was dissolved in 12.538 mL of water to make a 50% w/v solution (pH=7.23). Seven (7) mL of the 50% w/v solution was added to a 400 mg vial of Orbactiv for a target oritavancin concentration of 57.14 mg/mL. […] A 2 mL aliquot of 57.14 mg/mL was removed from the vial and placed in a small glass vial. The pH was adjusted to 6.5 using 1N NaOH. NaOH was added to the oritavancin solution in 5 μL increments and vortexed. Visual observations and pH were recorded (Table 6).
(§1) Reconstituting Orbactiv 400 mg (Oritavancin) in 50% w/v aqueous HPCD, adjusting pH then diluting in saline. 6.112 g of HPCD was dissolved in 12.224 mL of water to make a 50% w/v solution (pH=6.74). Seven (7) mL of the 50% w/v HPCD solution was added to a 400 mg vial of Orbactiv for a target oritavancin concentration of 57.14 mg/mL. […] A 3 mL aliquot of 57.14 mg/mL was removed from the vial and placed in a small glass vial. The pH was adjusted to 7 using 1N NaOH. NaOH was added to the oritavancin solution in 5 μL increments and vortexed. Visual observations and pH were recorded (Table 8).
as §1, with “20%” for “50%”, “3.555” for “6.112”, “17.775” for “12.224”, “(pH=6.88).” for “(pH=6.74).”, “recorded.” for “recorded”, “10).” for “8).”
Reconstituting Orbactiv 400 mg (Oritavancin) in 20% w/v aqueous HPCD then diluting in Hank's Balanced Salt Solution (HBSS). 2.641 g of HPCD was dissolved in 13.205 mL of water to make a 20% w/v solution (pH=6.70). Eight (8) mL of the 20% w/v solution was added to a 400 mg vial of Orbactiv for a target oritavancin concentration of 50 mg/mL. […] A 1.5 mL aliquot of 50 mg/mL was removed from the vial and placed in a small glass vial and pH measured. Diluted 2 mL of 50 mg/mL oritavancin solution in 8 mL of HBSS. Visual observations and pH were recorded. (Table 12).

CN[C@H](CC(C)C)C(=O)N[C@H]1C(=O)N[C@@H](CC(N)=O)C(=O)N[C@H]2C(=O)N[C@H]3C(=O)N[C@H](C(=O)N[C@H](C(=O)O)c4cc(O)cc(O)c4-c4cc3ccc4O)[C@H](O[C@H]3C[C@](C)(N)[C@@H](O)[C@H](C)O3)c3ccc(c(Cl)c3)Oc3cc2cc(c3O[C@@H]2O[C@H](CO)[C@@H](O)[C@H](O)[C@H]2O[C@H]2C[C@](C)(NCc3ccc(-c4ccc(Cl)cc4)cc3)[C@@H](O)[C@H](C)O2)Oc2ccc(cc2Cl)[C@H]1O [Oritavancin]
visible precipitation (50 mg/mL in 20% w/v HPCD solution): did not show any sign of visible precipitation
visible precipitation (50 mg/mL in 50% HPCD aqueous solution): did not show any sign of visible precipitation
time to go into solution (clear, colorless solution) (400 mg vial + 7 mL 20% w/v HPCD solution): ≤ 5 min
time to go into solution (clear, colorless solution) (400 mg vial + 7 mL 20% w/v HPCD solution, listed as Orbactiv): 5 min
time to go into solution (clear, colorless solution) (400 mg vial + 7 mL 50% w/v HPCD solution): ≤ 5 min
time to go into solution (clear, colorless solution) (400 mg vial + 7 mL 50% w/v HPCD solution, listed as Orbactiv): 5 min
pH (reconstituted with 20% w/v aqueous HPCD, RT, 0 hr): 3.85
pH (reconstituted with 20% w/v aqueous HPCD, RT, 24 hr): 4.17
pH (reconstituted with 50% w/v HPCD in water, 0 hr): 3.94

Source: patent US20170239323A1, “ORITAVANCIN FORMULATIONS” (The Medicines Company, priority 2016, published 2017)
